# From US20260041093A1, “Ionic Derivatives Of Aromatic Carboxylic Acid For Use As Plant Stimulants, Method For Stimulating Plants And Use Of These Derivatives For Manufacturing Compositions For Stimulating Plants” (FUNDACJA UNIWERSYTETU IM. ADAMA MICKIEWICZA W POZNANIU, priority 2022, published 2026)
# Where two headings read alike, the source gives them in different places.
# Key:
# powdery mildew fungus [1] = assay: Protection of tomato against powdery mildew by spraying (Example 35); type: in vivo, Lycopersicon Esculentum Mill tomato; details: 40 mg/l, sprayed twice; 2 weeks after pathogen inoculation
# Method: […] The control was tomato plants watered only with water. […] The suspension was prepared from culture on solid medium. Protection against biotic stress was evaluated by comparing the area of leaves affected by infection.
# Proceeded in the way as described in Example 34, with the difference that plants were sprayed and not watered.
# [2] = tested on: tobacco mosaic virus (TMV); assay: Direct effect on TMV infectivity: virus incubated with substance, then Xanthi tobacco leaves infected (Example 21); type: in vivo; details: TMV about 3 μg/ml mixed 1:1 with substance 80 mg/L, 30 min; 5 days after infection; control 100
# Method: Sodium 3-chlorosalicylate; 5. Potassium 3-chlorosalicylate; 6. Calcium 3-chlorosalicylate; 7. Magnesium 3-chlorosalicylate (concentration 80 mg/L), in a 1:1 ratio and incubated for 30 min at room temperature. The control variant consisted of TMV incubated in water. All virus suspensions were used to mechanically infect Xanthi tobacco leaves, whose reaction to infection is manifested in easily quantifiable local necrotic spots (hypersensitivity, local infection).
# After 5 days, the area of leaf covered by necrotic spots compared to total leaf area was calculated for plants of all variants of treatment.
# [3] = tested on: Pseudomonas syringae pv. Tomato (Pst); assay: Protection of tomato against Pseudomonas syringae pv. Tomato by spraying (Example 33); type: in vivo, Lycopersicon Esculentum Mill tomato; details: 80 mg/L, sprayed twice; 2 weeks after infection
# Method: (§1) Tomato plants, at the stage of the first pair of developed true leaves, were watered twice with a solution of substance 1-6 at a concentration of 80 mg/L, at a weekly interval. The control was tomato plants watered only with water. One week after the second treatment, a suspension of Pst bacteria at a concentration of 10^5 was spot-injected into the leaves using an insulin syringe (without a needle). The suspension was prepared from a two-day culture of Pst on solid medium. Protection against biotic stress was evaluated by the proliferation of bacteria in the leaves at the insertion site and the formation of a necrotic spot, compared to the control.
# The procedure was followed as in Example 32, with the plants sprayed.
# [4] = tested on: Tobacco Mosaic Virus (TMV); assay: Protection of tobacco against TMV infection by spraying twice (Example 25); type: in vivo, Nicotiana tabacum cv. Xanthi; details: sprayed twice, 7 days after infection
# Source text: 5-chlorosalicylate of choline; 3. 3,5-dichlorosalicylate of choline; 4. 3-chlorosalicylate of sodium, 5. 3-chlorosalicylate of potassium, 6. 3-chlorosalicylate of calcium, 7.
# [5] = tested on: Pseudomonas syringae pv. Tomato; assay: Direct effect on bacterial infectivity (Example 22); type: in vivo; details: tobacco plant, 5 days after infection with solution of bacteria and test substance; control 100
# Method: Proceeding as in example 21, Pseudomonas syringae pv. Tomato bacteria were tested and incubated in bacterial medium.
# [6] = tested on: Tobacco Mosaic Virus (TMV); assay: Protection of tobacco against TMV infection by watering twice (Example 24); type: in vivo, Nicotiana tabacum cv. Xanthi; details: watered twice, 7 days after infection
# Method: Tobacco plants (Nicotiana tabacum) cv. […] 3,5-dichlorosalicylate of choline; 4. 3-chlorosalicylate of sodium, 5. 3-chlorosalicylate of potassium, 6. 3-chlorosalicylate of calcium, 7. 3-chlorosalicylate of magnesium at a concentration of 10 or 40 or 80 mg/L, at one-week intervals. The control was tobacco plants watered only with water. One week after the second treatment of the plants with the preparation, mechanical infection of the leaves with Tobacco Mosaic Virus (TMV) was carried out. This consisted of rubbing carborundum-sprinkled leaves several times with fingers soaked in a suspension of purified virus at a concentration of about 2 μg/ml. In order to evaluate the effectiveness of the tested substances in protection against biotic stresses, the TMV model and tobacco cv. Xanthi characterized by an interaction in the form of hypersensitivity phenomenon, i.e. the formation of easily quantifiable necrotic spots, were used.
# powdery mildew fungus [7] = assay: Direct effect on fungal infectivity (Example 23); type: in vivo; details: tobacco plant, 5 days after infection with solution of fungus and test substance; control 100
# Method: Proceeding as in Example 21, the test was performed on the powdery mildew fungus, which was then incubated on the medium.
# powdery mildew fungus [8] = type: in vivo, tomato; details: 80 mg/L, watered twice; 2 weeks after infection
# Method: Tomato plants, at the stage of the first pair of developed true leaves, were watered twice with a solution of substance 1-32 at a concentration of 80 mg/L, at a weekly interval. The control was tomato plants watered only with water. […] The suspension was prepared from culture on solid medium. Protection against biotic stress was evaluated by comparing the area of leaves affected by infection.
# [9] = tested on: Pseudomonas syringae pv. Tomato (Pst); assay: Protection of tomato against Pseudomonas syringae pv. Tomato by watering (Example 32); type: in vivo; details: 80 mg/L; watered twice; Pst 10^5; 2 weeks after infection
# Method: as §1
# [10] = tested on: Pseudomonas syringae pv. Tomato (Pst); details: watered twice, Pst 10^5, 2 weeks after infection
# Method: Tobacco plants at the stage of 3 developed leaves were watered twice, at a weekly interval, with a solution of test substances 1-11 at concentrations of 10, 40, 80 mg/L. The control was tobacco plants watered with water only. One week after the second treatment, a suspension of Pst bacteria at a concentration of 10^5 was spotted into the leaves using an insulin syringe (without a needle). The suspension was prepared from a two-day culture of Pst on solid medium. Protection against biotic stress was evaluated by the proliferation of bacteria in the leaves at the insertion site and the formation of a necrotic spot, compared to the control.
# We proceeded as in Example 30, with the effectiveness of protection against biotic stress tested against bacterial cell concentrations raised to about 10^6.
# Brome Mosaic Virus (BMV) = assay: Protection of barley against Brome Mosaic Virus infection by watering (Examples 28 and 29); type: in vivo; details: 80 mg/L, watered twice; 2 weeks after infection
Molecule,Reduction in necrotic spots (white patches) compared to control (powdery mildew fungus [1]),% of necrotic spots [2],% reduction in necrotic spots compared to control [3],% reduction in necrotic spots compared to control ([4]; 10 mg/L),% reduction in necrotic spots compared to control ([4]; 40 mg/L),% reduction in necrotic spots compared to control ([4]; 80 mg/L),% of necrotic spots [5],% reduction in necrotic spots compared to control ([6]; 10 mg/L),% reduction in necrotic spots compared to control ([6]; 40 mg/L),% reduction in necrotic spots compared to control ([6]; 80 mg/L),% of necrotic spots (powdery mildew fungus [7]),% reduction in necrotic spots compared to control (powdery mildew fungus [8]),% reduction in necrotic spots compared to control [9],% reduction in necrotic spots compared to control ([10]; 10 mg/L),% reduction in necrotic spots compared to control ([10]; 40 mg/L),% reduction in necrotic spots compared to control ([10]; 80 mg/L),% reduction in necrotic spots compared to control (Brome Mosaic Virus (BMV))
C[N+](C)(C)CCO.O=C([O-])c1cc(Cl)ccc1O [choline 5-chlorosalicylate],68%,100%,88%,39%,61%,74%,98%,34%,62%,98%,98%,90%,87%,28%,36%,80%,36%
C[N+](C)(C)CCO.O=C([O-])c1cc(Cl)cc(Cl)c1O,66%,95%,57%,36%,47%,54%,100%,36%,58%,96%,96%,85%,59%,27%,38%,84%,77%
calcium 3-chlorosalicylate,62%,100%,82%,20%,30%,36%,97%,33%,65%,97%,97%,69%,86%,–,–,–,–
O=C([O-])c1cccc(Cl)c1O.[K+] [potassium 3-chlorosalicylate],54%,95%,84%,>10%,>10%,15%,98%,32%,65%,98%,98%,84%,87%,–,–,–,–
O=C([O-])c1cccc(Cl)c1O.[Na+] [sodium 3-chlorosalicylate],55%,97%,51%,24%,29%,55%,95%,24%,63%,95%,96%,88%,53%,–,–,–,–
